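Assay format: 96-well plates, 48-hour exposure. GI50 is the concentration that inhibits growth by half. TGI denotes the concentration required for complete inhibition of growth.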
Columns and labels:
Assay in all cases: inhibition of tumour cell growth, NCI panel, 48 h
[1] = tested on: CCRF-CEM leukemia
[2] = tested on: SR leukemia
[3] = tested on: COLO 205 colon
[4] = tested on: MDA-MB-435
[5] = tested on: OVCAR-3 ovarian
[6] = tested on: ACHN renal
[7] = tested on: UACC-257 melanoma
[8] = tested on: HT29 colon
[9] = tested on: HL-60(TB) leukemia
[10] = tested on: NCI-H23 lung
[11] = tested on: SK-MEL-28 melanoma
[12] = tested on: UO-31 renal
[13] = tested on: HOP-92 NSCLC
[14] = tested on: MALME-3M melanoma
[15] = tested on: SNB-75 CNS
[16] = tested on: SN12C renal
[17] = tested on: HCT-15 colon
[18] = tested on: SNB-19 CNS
[19] = tested on: BT-549 breast
[20] = tested on: A549 NSCLC
[21] = tested on: OVCAR-4 ovarian
[22] = tested on: NCI/ADR-RES ovarian
[23] = tested on: K-562 leukemia
[24] = tested on: LOX IMVI melanoma
[25] = tested on: KM12 colon
[26] = tested on: M14 melanoma
[27] = tested on: U251 CNS
[28] = tested on: OVCAR-8 ovarian

COc1cc2c(cc1OCCCNC(=O)/C=C1/C[C@H]3C=Nc4cc(OCc5ccccc5)c(OC)cc4C(=O)N3C1)NC(=O)[C@@H]1CCCN1C2=O
GI50 [1]: 40.8 µM
TGI [1]: > 100 µM
GI50 [2]: 17.5 µM
TGI [2]: 49.2 µM
GI50 [3]: 54.6 µM
TGI [3]: > 100 µM
GI50 [4]: 44.2 µM
TGI [4]: > 100 µM
GI50 [5]: > 100 µM
TGI [5]: > 100 µM
GI50 [6]: > 100 µM
TGI [6]: > 100 µM
GI50 [7]: > 100 µM
TGI [7]: > 100 µM
GI50 [8]: 45.2 µM
TGI [8]: > 100 µM
GI50 [9]: 51.9 µM
TGI [9]: > 100 µM
GI50 [10]: > 100 µM
TGI [10]: > 100 µM
GI50 [11]: > 100 µM
TGI [11]: > 100 µM
GI50 [12]: > 100 µM
TGI [12]: > 100 µM
GI50 [13]: 47.2 µM
TGI [13]: > 100 µM
GI50 [14]: > 100 µM
TGI [14]: > 100 µM
GI50 [15]: 32.7 µM
TGI [15]: 98.1 µM
GI50 [16]: 18.4 µM
TGI [16]: > 100 µM
GI50 [17]: > 100 µM
TGI [17]: > 100 µM
GI50 [18]: 43.3 µM
TGI [18]: > 100 µM
GI50 [19]: 23.9 µM
TGI [19]: 53.5 µM
GI50 [20]: > 100 µM
TGI [20]: > 100 µM
GI50 [21]: 73.8 µM
TGI [21]: > 100 µM
GI50 [22]: > 100 µM
TGI [22]: > 100 µM
GI50 [23]: 82.8 µM
TGI [23]: > 100 µM
GI50 [24]: 43.3 µM
TGI [24]: > 100 µM
GI50 [25]: 47.5 µM
TGI [25]: > 100 µM
GI50 [26]: 55.3 µM
TGI [26]: > 100 µM
GI50 [27]: 33.3 µM
TGI [27]: > 100 µM
GI50 [28]: > 100 µM
TGI [28]: > 100 µM

Reference: PubChem BioAssay (NCI)
